Test results from paper PMC2966298 (Journal of medicinal chemistry, 2010).
Entries after “also recorded” stand apart in the source; their conditions may differ.

Columns and labels:
15-hLO-1 [1] = molecular target: T1, 15-hLO-1 (Homo sapiens, UniProt P16050); conditions: cited from earlier work
T1 sequence (P16050 1-662): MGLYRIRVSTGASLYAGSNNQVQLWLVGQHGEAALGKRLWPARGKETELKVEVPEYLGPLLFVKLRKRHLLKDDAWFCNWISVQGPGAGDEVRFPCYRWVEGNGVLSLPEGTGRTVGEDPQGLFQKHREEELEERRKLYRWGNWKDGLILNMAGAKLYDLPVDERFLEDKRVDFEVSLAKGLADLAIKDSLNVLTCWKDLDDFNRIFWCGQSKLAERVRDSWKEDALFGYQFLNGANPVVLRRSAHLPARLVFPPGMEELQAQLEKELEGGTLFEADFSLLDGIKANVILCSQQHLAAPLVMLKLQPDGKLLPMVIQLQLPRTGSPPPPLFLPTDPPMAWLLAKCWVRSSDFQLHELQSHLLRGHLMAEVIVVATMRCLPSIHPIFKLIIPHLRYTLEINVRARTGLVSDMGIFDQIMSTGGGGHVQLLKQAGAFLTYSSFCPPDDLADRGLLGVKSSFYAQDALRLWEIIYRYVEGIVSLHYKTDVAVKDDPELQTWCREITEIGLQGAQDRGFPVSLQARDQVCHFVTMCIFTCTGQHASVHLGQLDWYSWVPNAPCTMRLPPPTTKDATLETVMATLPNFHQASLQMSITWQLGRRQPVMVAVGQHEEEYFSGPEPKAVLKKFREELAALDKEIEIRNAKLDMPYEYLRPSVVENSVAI

[2] = Solubility as noted during biochemical characterization; assay type: physicochemical; conditions: noted where Ki^app could not be obtained accurately
[3] = molecular target: T2, Human reticulocyte 15-lipoxygenase-1 (15-hLO-1) (Homo sapiens, UniProt P16050); experiment: Lipoxygenase UV-Vis assay; conditions: for fold loss in activity against 15-hLO-1 relative to lead 5: compared with compound 5 (19 nM)
T2 sequence (P16050 1-662): T1 sequence (P16050 1-662)

15-hLO-1 [4] = molecular target: T1, 15-hLO-1; experiment: Steady-state inhibition kinetics; conditions: replot of 1/Vmax vs inhibitor; AA substrate, 0.01% Triton X-100
15-hLO-1 [5] = molecular target: T1, 15-hLO-1; experiment: Reversibility of inhibition; assay type: biochemical; conditions: 50 μM inhibitor, 10 min incubation, then 2 h dialysis

COc1ccc(-c2oc3cc(OC)c(OC)c(OC)c3c(=O)c2OC)cc1OC [hexamethoxyflavone]
IC50 (15-hLO-1 [1]): 50000 nM

O=C(OCC#CCSc1nnc(-c2cccc3ccccc23)s1)c1cccs1 [Analogue 58]
solubility (in words) [2]: noticeably less soluble; also recorded: low solubility

O=C(OCC#CCNc1nnc(-c2cccc3ccccc23)o1)c1cccs1 [Analogue 60]
IC50 [3]: 1300 nM

O=C(OCC#CCSc1nnc(-c2cc3ccccc3cc2O)o1)c1ccc(F)cc1 [Analogue 53]
solubility (in words) [2]: low solubility

O=C(NCC#CCSc1nnc(-c2cccc3ccccc23)o1)c1cccs1 [Analogue 56]
IC50 [3]: 2000 nM
fold loss in activity against 15-hLO-1 relative to lead 5 [3]: 100 fold

O=C(OCc1ccc(CSc2nnc(-c3cccc4ccccc34)o2)cc1)c1ccc(F)cc1 [Analogue 62]
IC50 [3]: > 100000 nM

O=C(CCC#CCSc1nnc(-c2cccc3ccccc23)o1)c1ccccc1 [Analogue 67]
solubility (in words) [2]: reduced solubility; also recorded: low solubility

Fc1ccc(COCC#CCSc2nnc(-c3cccc4ccccc34)o2)cc1 [Analogue 66]
activity against 15-hLO-1 (in words) [3]: complete loss in activity

O=C(OCC#CCSc1nnc(-c2ccc(F)cc2)o1)c1ccc(F)cc1 [Analogue 47]
IC50 [3]: < 10 nM

O=C(OCC#CCSc1nnc(-c2cccc3ccccc23)o1)c1c[nH]cn1 [Analogue 16]
Ki’ (dissociation from the secondary site) (15-hLO-1 [4]): 8100 ± 900 nM
fold loss in activity against 15-hLO-1 relative to lead 5 [3]: approximately 70 fold

O=C(OCC#CCSc1nnc(-c2cccc3ccccc23)o1)c1ccccc1F [Analogue 25]
reversibility of inhibition (15-hLO-1 [5]): reversible
